Where two headings read alike, the source gives them in different places.
Experiments:
[1] = cited from earlier work; for Onset: in vivo; for Duration: without epinephrine
[2] = cited from earlier work; for Maximum Dose: without epinephrine
male, Sprague-Dawley rat = test: Radiant heat pain threshold test after introducing particles into a paraspinal pocket; type: in vivo; conditions: 20 seconds cut-off, treated right side
Experimental: To test the local anesthetic efficacy and duration of effect induced by bupivacaine palmitate particles, a treatment and control side in a male, Sprague-Dawley rat (250-300 g) was employed. The animal was anesthetized with isoflurane inhalation (2.5-3%), whereupon the back was partly shaved. A 16 g needle was introduced deep to the shaved skin on the left mid paraspinal back and moved side to side to clear a small (1.0 cm diameter) pocket. A similar procedure was performed on the right side. The needle was then used to introduce test local anesthetic bupivacaine palmitate particles into the pocket on the right side.
The rat was awakened and placed in a Decapicone for restraint. As restraint itself can produce endogenous analgesic effects, the animal was allowed to rest quietly in the cone for 15 min prior to any testing. Radiant heat from a focused projection bulb with area of approximately 0.5 cm^2 was then directed to the test areas to assess the pain threshold several times on each side. The light was applied until the rat attempted to move within the restraint cone, at which time the light heat stimulus was turned off. The light heat stimulus was never allowed to exceed a 20 seconds interval in order to avoid permanent damage to the skin or undue discomfort.
The post-procedural results at 15 min, 1 and 2 days are represented in average number of seconds before movement: […]

Structure (SMILES)	Onset [1]	Duration (with Epinephrine) [1]	Duration [1]	Maximum Dose (with Epinephrine) [2]	Maximum Dose [2]	Maximum Dose ([2]; total in 24 hrs)	average number of seconds before movement (male, Sprague-Dawley rat; Day 0 (15 min post-procedure), radiant heat)	average number of seconds before movement (male, Sprague-Dawley rat; Day 1, radiant heat)	average number of seconds before movement (male, Sprague-Dawley rat; Day 2, radiant heat)
CCN(CC)CC(=O)Nc1c(C)cccc1C [Lidocaine, 2-(diethylamino)-N-(2,6-dimethylphenyl)-acetamide]	Rapid	(240 min)	120 min	(7 mg/kg)	4.5 mg/kg				
CCCN1CCCC[C@H]1C(=O)Nc1c(C)cccc1C [Ropivacaine]	Medium	(6 h)	180 min		2 to 3 mg/kg				
CCCN(CC)C(CC)C(=O)Nc1c(C)cccc1C (stereo not shown) [Etidocaine]	Rapid	(8 h)	240 min	(4 mg/kg)	2.5 mg/kg				
CCN(CC)CCOC(=O)c1ccc(N)cc1Cl [Chloroprocaine]	Rapid	(90 min)	30 min	(15 mg/kg)	10 mg/kg				
CCN(CC)CCOC(=O)c1ccc(N)cc1 [Procaine]	Slow	(90 min)	45 min	(10 mg/kg)	8 mg/kg				
CCCCNc1ccc(C(=O)OCCN(C)C)cc1 [Tetracaine]	Slow	(10 h)	180 min	(2.5 mg/kg)	1.5 mg/kg				
CCCNC(C)C(=O)Nc1ccccc1C (stereo not shown) [Prilocaine]	Medium	(360 min)	90 min	(7.5 mg/kg)	5 mg/kg				
CCCCN1CCCC[C@H]1C(=O)Nc1c(C)cccc1C [Levobupivacaine]	Medium	(8-12 h)	240 to 360 min		2.0 mg/kg	400 mg in 24 hrs			
Cc1cccc(C)c1NC(=O)C1CCCCN1C (stereo not shown) [Mepivacaine]	Rapid	(360 min)	180 min	(7 mg/kg)	5 mg/kg				
CCCCN1CCCCC1C(=O)Nc1c(C)cccc1C (stereo not shown) [Bupivacaine]	Slow	(8 h)	240 min	(3 mg/kg)	2.5 mg/kg		>20 s	16 s	7.6 s

Reference: patent publication USRE46397E1, “Slow release of organic salts of local anesthetics for pain relief” (SVIP5 LLC, priority 2007, dated 2017)
